Some test systems named below: TK-10; T47D; OVCAR-3; NCI-H23; MDA-MB-435; RPMI-8226; HL-60; EKVX; SK-MEL-5; MDA-MB-231; LOX IMVI; DU-145; SNB-19; MCF7; HCC 2998; NCI/ADR-RES; OVCAR-5; ACHN; NCI-H460.
Assay in all cases: growth of human tumour cells (NCI), 48 h

SMILES strings stand for the structures.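 Interpolation was linear, between the two tested concentrations surrounding the appropriate level; five concentrations were tested over 48 hours in 96-well plates. GI50 marks 50% less growth.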 Activity calls are given as the source filed them. No stated cut-off is given here; in the data, active = GI50 up to about 1.1 µM and inactive = higher. A value given as a limit tells only on which side of the number the result lay.

With `CCOC(=O)c1cnc2oc(/C=N/N3CC(CN4CCOCC4)OC3=O)cc2c1O` (centres undefined), the GI50 with TK-10, in the test with T47D, with OVCAR-3, with NCI-H23, in the test with MDA-MB-435 and in the test with RPMI-8226 was > 100 µM (inactive) in each case. In addition, the GI50 with HL-60, with EKVX, in the test on SK-MEL-5, in the test with MDA-MB-231, in the test on LOX IMVI and in the test with DU-145 was > 100 µM (inactive) each time. Also, the GI50 with SNB-19, in the test on MCF7, in the test with HCC 2998, with NCI/ADR-RES, in the test with OVCAR-5 and in the test on ACHN was > 100 µM (inactive) each time. In the test on NCI-H460, the GI50 is > 100 µM (inactive).

For `Cc1ccc(S(=O)(=O)Oc2coc(CO)cc2=O)cc1`, the GI50 was 17.5 µM (inactive) with TK-10; 13.3 µM (inactive) in the test on T47D; 15.3 µM (inactive) in the test with OVCAR-3; 16.8 µM (inactive) in the test on NCI-H23; 6.85 µM (inactive) in the test with MDA-MB-435; 3.97 µM (inactive) with RPMI-8226. The GI50 with HL-60 is 3.14 µM (inactive); in the test with EKVX it was 15.3 µM (inactive); with SK-MEL-5, 13.5 µM (inactive); in the test on MDA-MB-231, 18.6 µM (inactive); with LOX IMVI it was 3.05 µM (inactive); in the test with DU-145 it was 12.2 µM (inactive). Besides, the GI50 with SNB-19 was 14.6 µM (inactive); with MCF7 it was 4.7 µM (inactive); in the test with HCC 2998, 13.7 µM (inactive); in the test with NCI/ADR-RES it was 22.8 µM (inactive); in the test on OVCAR-5 it was 17.8 µM (inactive); in the test with ACHN it was 18 µM (inactive). Besides, the GI50 in the test on NCI-H460 was 14.4 µM (inactive).

Turning to `CC1CCC2(O)C3(C)CC4(O)OC2(C1O)C1(O)C3(O)C(OC(=O)c2ccc[nH]2)C(O)(C(C)C)C41C` (centres undefined), the GI50 with TK-10, in the test with T47D, in the test with OVCAR-3, in the test on NCI-H23, with MDA-MB-435 and in the test with RPMI-8226 was > 100 µM (inactive) throughout. The GI50 in the test on HL-60 is > 65.8 µM (inactive); in the test with EKVX, > 100 µM (inactive); in the test with SK-MEL-5 it was > 100 µM (inactive); with MDA-MB-231, > 100 µM (inactive); in the test with LOX IMVI, > 100 µM (inactive); in the test with DU-145, > 100 µM (inactive). For the same compound, the GI50 with SNB-19, with MCF7, in the test on HCC 2998, with NCI/ADR-RES, in the test on OVCAR-5 and with ACHN was > 100 µM (inactive) each time. In addition, the GI50 with NCI-H460 is > 100 µM (inactive).

With `COc1ccc(Cn2c3ccc([N+](=O)[O-])cc3c(=O)n2Cc2ccccn2)cc1`, the GI50 in the test on TK-10 is > 100 µM (inactive); in the test on T47D, 18.2 µM (inactive); in the test on OVCAR-3, > 100 µM (inactive); in the test on NCI-H23, 66.2 µM (inactive); in the test with MDA-MB-435, 76.4 µM (inactive); in the test with RPMI-8226 it was 34.5 µM (inactive). Moreover, the GI50 in the test with HL-60 is 28.9 µM (inactive); with EKVX, 66.5 µM (inactive); with SK-MEL-5, 24.9 µM (inactive); in the test with MDA-MB-231, > 100 µM (inactive); with LOX IMVI, 78.2 µM (inactive); in the test on DU-145 it was > 100 µM (inactive). Further, the GI50 in the test on SNB-19 is > 100 µM (inactive); with MCF7 it was > 100 µM (inactive); in the test on HCC 2998, > 100 µM (inactive); in the test with NCI/ADR-RES, 39.7 µM (inactive); in the test on OVCAR-5 it was > 100 µM (inactive); with ACHN it was 87.9 µM (inactive). For the same compound, the GI50 with NCI-H460 was > 100 µM (inactive).

Regarding `Cc1ccnc2nc(-c3ccc(Cl)cc3)cc(O)c12`, the GI50 was > 60.5 µM (inactive) in the test on TK-10; > 24.5 µM (inactive) in the test with T47D; 4.89 µM (inactive) with OVCAR-3; 6.31 µM (inactive) with NCI-H23; 0.578 µM (active) with MDA-MB-435; 2.94 µM (inactive) in the test with RPMI-8226. The GI50 is 1.58 µM (inactive) in the test with HL-60; 29.7 µM (inactive) in the test on EKVX; 3.13 µM (inactive) in the test on SK-MEL-5; 14.8 µM (inactive) in the test on MDA-MB-231; 4.13 µM (inactive) in the test with LOX IMVI; 13.5 µM (inactive) with DU-145. In addition, the GI50 with SNB-19 was 19.1 µM (inactive); with MCF7, 2.94 µM (inactive); with HCC 2998, > 27.4 µM (inactive); in the test on NCI/ADR-RES, 3.88 µM (inactive); in the test on OVCAR-5, > 100 µM (inactive); in the test with ACHN, > 24.9 µM (inactive). For the same compound, the GI50 with NCI-H460 was 3.85 µM (inactive).

For the compound `CC(C)(C)C1CCC2c3c([nH]c4ccccc34)C3C(=O)N(c4ccc([N+](=O)[O-])cc4)C(=O)C3C2C1` (centres undefined), the GI50 in the test with TK-10 is 21.3 µM (inactive); in the test on T47D it was 13.9 µM (inactive); in the test with OVCAR-3 it was 10.7 µM (inactive); in the test with NCI-H23 it was 10.3 µM (inactive); in the test on MDA-MB-435, 28.1 µM (inactive); with RPMI-8226, 27 µM (inactive). For the same compound, the GI50 is 6.11 µM (inactive) in the test on HL-60; 25.3 µM (inactive) with EKVX; 12.2 µM (inactive) in the test on SK-MEL-5; 17.8 µM (inactive) in the test on MDA-MB-231; 8.34 µM (inactive) with LOX IMVI; 26.7 µM (inactive) in the test on DU-145. Moreover, the GI50 is 22 µM (inactive) with SNB-19; 2.79 µM (inactive) in the test with MCF7; 9.14 µM (inactive) with HCC 2998; 14.9 µM (inactive) with NCI/ADR-RES; 25.2 µM (inactive) in the test on OVCAR-5; 36.6 µM (inactive) with ACHN. Further, the GI50 in the test with NCI-H460 is 13.6 µM (inactive).

As to `O=C(C[C@@H]1NCCC[C@H]1O)Cn1cnc2cc(Br)c(Cl)cc2c1=O`, the GI50 with TK-10 was 0.0491 µM (active); in the test on T47D, 0.0246 µM (active); in the test with OVCAR-3, < 0.0176 µM (active); with NCI-H23, 0.0195 µM (active); with MDA-MB-435 it was 0.012 µM (active); in the test with RPMI-8226, 0.0243 µM (active). For the same compound, the GI50 in the test with HL-60 is 0.033 µM (active); in the test on EKVX, 0.0244 µM (active); with SK-MEL-5 it was 0.0153 µM (active); in the test on MDA-MB-231, 0.0284 µM (active); in the test on LOX IMVI it was < 0.01 µM (active); with DU-145, 0.025 µM (active). The GI50 with SNB-19 was 0.0204 µM (active); with MCF7, < 0.01 µM (active); in the test with HCC 2998 it was 0.0458 µM (active); in the test with NCI/ADR-RES, 0.0416 µM (active); with OVCAR-5, < 0.0135 µM (active); in the test with ACHN, 0.0233 µM (active). In addition, in the test with NCI-H460, the GI50 is 0.0127 µM (active).

Turning to `CC12O[C@]3([C@H](C(=O)N4CCOC43C)[C@H]1Cl)[C@H]1O[C@H]12` (some centres undefined), the GI50 was > 100 µM (inactive) in the test on TK-10; > 100 µM (inactive) in the test with T47D; > 100 µM (inactive) with OVCAR-3; > 100 µM (inactive) with MDA-MB-435; 94.8 µM (inactive) in the test with RPMI-8226; > 100 µM (inactive) with HL-60. For the same compound, the GI50 with EKVX, in the test with SK-MEL-5, in the test with MDA-MB-231, in the test on LOX IMVI, in the test on DU-145 and in the test with SNB-19 was > 100 µM (inactive) each time. Also, the GI50 with MCF7, in the test on HCC 2998, in the test with NCI/ADR-RES, with OVCAR-5, in the test on ACHN and in the test with NCI-H460 was > 100 µM (inactive) in each case.

Consider `COc1ccc2nc(NC(=O)/C(C#N)=C/c3ccccc3)sc2c1`, for which the GI50 with TK-10 was 26.4 µM (inactive); in the test with T47D, 30.1 µM (inactive); in the test with OVCAR-3, 18.4 µM (inactive); in the test on NCI-H23, > 67.3 µM (inactive); with MDA-MB-435, 24.5 µM (inactive); in the test on RPMI-8226, 23.4 µM (inactive). The GI50 in the test with HL-60 was 9.35 µM (inactive); in the test on EKVX, 38.4 µM (inactive); in the test on SK-MEL-5, 20.8 µM (inactive); in the test on MDA-MB-231, > 79.8 µM (inactive); with LOX IMVI, 39.4 µM (inactive); in the test on DU-145, > 52.6 µM (inactive). The GI50 in the test with SNB-19 is > 100 µM (inactive); in the test on MCF7, 36.2 µM (inactive); in the test on HCC 2998, 44.3 µM (inactive); with NCI/ADR-RES, > 39 µM (inactive); with OVCAR-5 it was > 100 µM (inactive); with ACHN, 35.6 µM (inactive). In addition, the GI50 in the test with NCI-H460 was 38 µM (inactive).

With `C=C(c1ccccc1)C1ON(C)CCc2cc(OC)c(OC)cc21` (centres undefined), the GI50 in the test on TK-10 is > 100 µM (inactive); in the test on T47D, 37 µM (inactive); with OVCAR-3, > 100 µM (inactive); in the test on NCI-H23, 66.2 µM (inactive); in the test on MDA-MB-435, 84.9 µM (inactive); in the test on RPMI-8226 it was > 100 µM (inactive). The GI50 is > 100 µM (inactive) in the test on HL-60; > 100 µM (inactive) in the test with EKVX; 23.3 µM (inactive) in the test on SK-MEL-5; 53.6 µM (inactive) in the test on MDA-MB-231; 26.2 µM (inactive) in the test on LOX IMVI; > 100 µM (inactive) with DU-145. In addition, the GI50 in the test with SNB-19 is > 100 µM (inactive); in the test on MCF7 it was 0.256 µM (active); in the test with HCC 2998 it was > 100 µM (inactive); with NCI/ADR-RES, 48.4 µM (inactive); in the test with OVCAR-5, > 100 µM (inactive); in the test with ACHN, 84.7 µM (inactive). For the same compound, the GI50 in the test with NCI-H460 is > 100 µM (inactive).

These data come from ChEMBL document CHEMBL1201862, “PubChem BioAssay data set” (2004).
